# Test results reported in ChEMBL document CHEMBL1126504, “Synthesis of pyrrolidine oxazoles as thromboxane A2/endoperoxide receptor antagonists” (Bioorg Med Chem Lett, 1993).
# Key:
# Thromboxane A2 receptor = target: T1, Thromboxane A2 receptor (Homo sapiens, UniProt P21731); experiment: Binding affinity was determined for Thromboxane A2 receptor in human platelet membrane in presence of [3H]-SQ-29,548 radioligand; type: cell membranes
# T1 sequence (P21731 whole entry): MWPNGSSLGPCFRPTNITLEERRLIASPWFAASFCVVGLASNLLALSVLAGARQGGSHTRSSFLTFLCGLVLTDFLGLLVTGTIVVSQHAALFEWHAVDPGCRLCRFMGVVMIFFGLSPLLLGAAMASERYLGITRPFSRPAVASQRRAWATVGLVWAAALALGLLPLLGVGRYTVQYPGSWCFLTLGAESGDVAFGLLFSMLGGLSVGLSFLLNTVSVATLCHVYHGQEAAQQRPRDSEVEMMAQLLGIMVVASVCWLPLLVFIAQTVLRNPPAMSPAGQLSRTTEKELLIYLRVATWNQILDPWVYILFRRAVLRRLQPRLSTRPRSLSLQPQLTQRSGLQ
# Homo sapiens = species on record: Homo sapiens; experiment: Inhibition of arachidonic acid-induced and ADP-induced platelet aggregation of human platelet rich plasma; type: functional; settings: read-out: I50
"IC50 (Homo sapiens; Homo sapiens, Plasma)",Structure (SMILES),other results
1700 nM,O=C(O)CCc1ccccc1CN1CCC[C@@H]1c1nc(C(=O)NCCCCC2CCCCC2)co1,
19 nM,O=C(O)CCc1ccccc1C(=O)N1CCC[C@H]1c1nc(C(=O)NCCCCC2CCCCC2)co1,
23000 nM,O=C(O)CCc1ccccc1CN1C(=O)CCC1c1nc(C(=O)NCCCCC2CCCCC2)co1 (stereo not drawn),

# The next lines start with the molecule.
Structure (SMILES),"IC50 (Homo sapiens; Homo sapiens, Plasma)",other results
O=C(O)CCc1ccccc1CN1CCCC1c1nc(C(=O)NCCCCC2CCCCC2)co1 (stereo not drawn),,Kd (Thromboxane A2 receptor): 11 nM
O=C(O)CCc1ccccc1CN1CCC[C@H]1c1nc(C(=O)NCCCCC2CCCCC2)co1,19 nM,
O=C(O)CCc1ccccc1C(=O)N1[C@@H](O)CC[C@H]1c1nc(C(=O)NCCc2ccc(Cl)cc2)co1,3700 nM,
"O=C(O)CCc1ccccc1C(=O)N1c2ccccc2CC1c1nc(C(=O)NCCc2ccc(Cl)cc2)co1 (single isomer, unassigned; (+))",,IC50 (Homo sapiens): 250 nM
"O=C(O)CCc1ccccc1C(=O)N1c2ccccc2CC1c1nc(C(=O)NCCc2ccc(Cl)cc2)co1 (single isomer, unassigned; (-))",,IC50 (Homo sapiens): 3700 nM
